Literature values, collected in patent publication US20070212386A1, “COATINGS FOR IMPLANTABLE MEDICAL DEVICES” (Sahajanand Medical Technologies Pvt. Ltd., priority 2006, published 2007).

Legend:
[1] = tested on: collagen induced platelet aggregation; conditions: literature refs [2,5]
[2] = general statement

Structure (SMILES) | concentration preventing collagen induced platelet aggregation [1] | solubility in water [2]
O=c1c(-c2ccc(O)cc2)coc2cc(O)cc(O)c12 [Genistein, 5,7-dihydroxy-3-(4-hydroxyphenyl)-4H-1-benzopyran-4-one] | more than 25 μM | practically insoluble in water
O=c1c(-c2ccc(O)cc2)coc2cc(O[C@@H]3O[C@H](CO)[C@@H](O)[C@H](O)[C@H]3O)cc(O)c12 [Genistin] |  | greater water solubility than genistein
O=c1c(O)c(-c2ccc(O)c(O)c2)oc2cc(O)cc(O)c12 [Quercetin, 2-(3,4-dihydroxyphenyl)-3,5,7-trihydroxy-4H-1-benzopyran-4-one] |  | practically insoluble in water
